A short description of this experiment: cytotoxicity in NIH3T3 fibroblasts, dose response, cytotoxicity control for HSP40 inhibitor project, cell-based, CellTiter-Glo luminescence, cherry-pick, set 2 (AID 624265).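 Note: cells exposed to compound for 48 hours before the ATP read; 0% = median neutral control signal and -100% = no luminescence left.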 Particulars: NIH3T3 viability, CellTiter-Glo ATP luminescence. On the technique in general: ATP-based viability assays read luminescence as a measure of living cells.

Each structure is given as a SMILES string. The source made the active and inactive calls.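 Rule for the calls: active = at a dose no more than twice the top valid tested dose, the fitted curve drops below -35% activity change; inactive = the rest, rising-direction activity included.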

The values that follow come from PubChem BioAssay AID624265 (Broad Institute, 2012).

Take `CCCCCCC(Cl)(Cn1ccnc1)c1ccccc1` (stereo not drawn): the activity change, negative = toxicity (at 50 µM (top of the series)) is 16% (inactive).
On the same count and under the same terms, the figure for `FC(F)(F)c1nc(SCc2ccc(Cl)cc2Cl)n[nH]1` is -4.01% (inactive); for `CCCCc1ccc(-n2c(Cc3cccs3)n[nH]c2=S)cc1` it is -7.72% (inactive).
On the same count and under the same terms, the figure for `C=CCN(CC=C)C(=S)NC(=O)c1ccc(C)c(Br)c1` is 19.7% (inactive).
For `CC(C)C(=O)NC(c1cccc([N+](=O)[O-])c1)c1ccc2cccnc2c1O` (stereo not drawn), for the setting “at 5.6 µM (top of the series)”, the activity change, negative = toxicity was -21% (inactive).
Regarding `CC1CCc2c(C(=O)Nc3ccccn3)csc2C1` (stereo not drawn), the activity change, negative = toxicity (at 50 µM (top of the series)) was -3.05% (inactive).
On the same count and under the same terms, for `CCCS(=O)(=O)c1c(S(=O)(=O)CCC)c2c(C)cccn2c1C(=O)N/N=C/c1cc(O)cc(O)c1` the value was -15.8% (inactive).
For the compound `Oc1c(Br)cc(-c2ccccc2)cc1Br`, the activity change, negative = toxicity (at 50 µM (top of the series)) was 10.3% (inactive).
The same measure, in the same setting: for `COc1ccccc1C1CCN(C(=O)c2ccc(Cl)cc2)CC1` the value was 6.31% (inactive); for `Cc1cc(/C=C2\SC(=S)N(C)C2=O)c(C)n1-c1ccc(O)cc1`, 6.11% (inactive); for `NC(=Nc1nc(-c2ccccn2)cc2ccccc12)c1ccccn1`, -27.1% (inactive).
Same read-out and setting: for `Cn1nc(C(F)(F)F)c(C#N)c1N1CCN(c2ccc(F)cc2)CC1` the value was 21.3% (inactive); for `Clc1nc(-c2ccccn2)nc2scc(-c3ccccc3)c12`, 5.16% (inactive); for `Fc1ccc(CCNC(=S)Nc2ccc(F)c(Cl)c2)cc1`, -8.4% (inactive).
As to `CC12CC3(C)CC(C)(C1)CC(NC(=O)N1CCCC1)(C2)C3`, where the note is “at 50 µM (top of the series)”, the activity change, negative = toxicity is 17.5% (inactive).
Consider `FC(F)(F)c1cccc(N2CCc3cn[nH]c32)c1`, for which, for the setting “at 50 µM (top of the series)”, the activity change, negative = toxicity is -9.14% (inactive).
`COc1cccc(CC(=O)Nc2ccc3nc(C)sc3c2)c1`: the activity change, negative = toxicity (at 50 µM (top of the series)) was 14.6% (inactive).
On to `O/N=C/c1ccccc1OCc1ccc(Cl)cc1`, for which, where the note is “at 50 µM (top of the series)”, the activity change, negative = toxicity was 18.4% (inactive).
Same read-out and setting: for `CCC1=NN(C(=O)c2cccc(Br)c2)C(O)(c2ccc(Br)cc2)C1` (stereo not drawn) the value was 4.18% (inactive); for `Cc1cccc(Oc2nc(-c3ccccn3)nc3ccccc23)c1`, 18.9% (inactive).
Take `CCCCC(=O)NC(=S)NNC(=O)CCc1ccccc1`: the activity change, negative = toxicity (at 50 µM (top of the series)) is -16.3% (inactive).
For `Cc1nc(-c2ccccn2)nc(N(C)c2ccccc2)c1Cl`, the activity change, negative = toxicity (at 50 µM (top of the series)) is 9.36% (inactive).
As to `O=C(CSc1ccc(-c2ccccn2)nn1)c1ccccc1`, where the note is “at 50 µM (top of the series)”, the activity change, negative = toxicity was -10.1% (inactive).
As for `O=C(OCC(=O)C12CC3CC(CC(C3)C1)C2)c1ccc(O)cc1`, where the note is “at 50 µM (top of the series)”, the activity change, negative = toxicity was 0.345% (inactive).
`CCCCCCSc1ccc(-c2nc3ccccn3c2NCCCC)cc1`: the activity change, negative = toxicity (at 50 µM (top of the series)) was 14% (inactive).
As for `O=C(NCCC1=CCCCC1)c1c(O)nc2sccn2c1=O`, the activity change, negative = toxicity (at 50 µM (top of the series)) is 15.1% (inactive).
Consider `CCC(C)c1ccc(NC(=S)NCCn2cc(Br)cn2)cc1` (stereo not drawn), for which, for the setting “at 50 µM (top of the series)”, the activity change, negative = toxicity is 16.1% (inactive).
Still for that read-out and setting: the figure for `CC(=O)C1=C(c2cccc([N+](=O)[O-])c2)N(C(C)=O)n2c(C)nnc2S1` is 4.36% (inactive); for `O=C(Nc1ccc(Br)c(C(F)(F)F)c1)c1ccccc1` it is -9.98% (inactive).
For the compound `O=C(NCC1CC1(Cl)Cl)Nc1ccc(Cl)c(Cl)c1` (stereo not drawn), the activity change, negative = toxicity (at 50 µM (top of the series)) is 17.4% (inactive).
Still for that read-out and setting: for `CCCCNC(=S)N/N=C1\CCCCc2ccccc21` the value was 1.99% (inactive); for `[O-][n+]1cccc2c(Br)cc(Br)c(O)c21`, -12.1% (inactive); for `O=C(NC(=S)N(CCc1ccccc1)CCc1ccccc1)c1ccco1`, 20.1% (inactive).
